Values quoted from earlier work, collected in publication PMC3341490 (Nuclear Medicine and Biology, 2012).

Assays:
[1] = copper complex; ref [24]
[2] = tested on: GRPR-expressing, PC-3 xenografted tumors in SCID mice

Row | Molecule | stability constant (log K) [1] | PC-3 tumor uptake ([2]; 1 hour, ref [18]-[19]) [% ID/g] | retention of radioactivity in the tumor, relative to 1 h ([2]; 24 h vs 1 h, ref [19]) [%]
1 | O=C(O)CN1CCN(CC(=O)O)CCN(CC(=O)O)CC1 [NOTA, 1,4,7-triazacyclononane-1,4,7-triacetic acid] | 21.6 |  | 
2 | ^64Cu-NO2A-Aoc-BN(7-14) |  | 3.59 | 28
3 | O=C(O)CN1CCCN(CC(=O)O)CCN(CC(=O)O)CCCN(CC(=O)O)CC1 [TETA] | 21.7 |  | 
4 | O=C(O)CN1CCN(CC(=O)O)CCN(CC(=O)O)CCN(CC(=O)O)CC1 [DOTA, 1,4,7,10-tetraazacyclododecane-1,4,7,10-tetraacetic acid] | 22.3 |  | 
